According to patent US12441709B2, “Therapeutic compounds” (INDIVIOR UK LIMITED, priority 2016, dated 2025):
Where two headings read alike, the source gives them in different places. No end group written: not given here.

Key:
human Orexin 1 receptor = biological target: T1, human Orexin 1 receptor (Homo sapiens, UniProt O43613); assay: Kinetics of competitive binding (Motulsky and Mahan analysis), Orexin 1 receptor; conditions: for Ki: read-out: pKi (M&M) (converted)
T1 construct: expressed in transfected cells
T1 sequence (O43613 1-425): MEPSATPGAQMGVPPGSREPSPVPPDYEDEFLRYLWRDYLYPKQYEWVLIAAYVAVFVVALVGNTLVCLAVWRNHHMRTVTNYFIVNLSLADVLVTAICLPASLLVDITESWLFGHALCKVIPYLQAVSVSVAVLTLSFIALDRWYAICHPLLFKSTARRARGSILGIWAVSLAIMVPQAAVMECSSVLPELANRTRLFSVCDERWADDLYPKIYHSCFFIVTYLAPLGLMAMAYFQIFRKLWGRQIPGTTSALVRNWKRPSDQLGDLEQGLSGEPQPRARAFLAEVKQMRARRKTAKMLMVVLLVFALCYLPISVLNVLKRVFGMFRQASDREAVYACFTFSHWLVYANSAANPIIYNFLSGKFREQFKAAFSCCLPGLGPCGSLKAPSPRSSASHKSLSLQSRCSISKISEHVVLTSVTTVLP
Procedure: (§1) Kinetics of Competitive Binding (Motulski and Mahan's Analysis):
(§2) Motulsky and Mahan characterisation of the Examples was performed as described by Faedo et al., European Journal of Pharmacology 692(2012), p. 1-9 with the following modifications:
(§3) The association binding experiment was initiated by addition of membranes expressing the human Orexin 1 receptor at different times to the incubation buffer containing 1 nM of [^3H] SB674042. Non-specific binding was determined in the presence of 10 μM of SB674042. The association of the radioligand to the orexin receptor was performed as described for the kinetics experiment in the presence of the competing test compounds. The competing test compounds were assayed at three concentrations corresponding to 3, 10 and 30 fold of the determined Ki. For kinetic binding studies of the human Orexin 2 receptor, the method described for the Orexin 1 receptor was used with modifications that membranes expressing the human Orexin 2 receptor were incubated in buffer containing 1 nM of [3H] EMPA and non-specific binding was determined in the presence of 10 μM ACT-078573.

human OX2 receptor [1] = biological target: T2, human OX2 receptor (Homo sapiens, UniProt O43614); assay: Orexin 2 receptor radioligand binding assay ([3H]-EMPA competition); conditions: CHO membranes, 2 nM [3H]-EMPA, 60 min room temperature; read-out: hOX2 pKi (converted)
T2 construct: expressed in transfected cells; host or cells: CHO cell line (membranes)
T2 sequence (O43614 1-444): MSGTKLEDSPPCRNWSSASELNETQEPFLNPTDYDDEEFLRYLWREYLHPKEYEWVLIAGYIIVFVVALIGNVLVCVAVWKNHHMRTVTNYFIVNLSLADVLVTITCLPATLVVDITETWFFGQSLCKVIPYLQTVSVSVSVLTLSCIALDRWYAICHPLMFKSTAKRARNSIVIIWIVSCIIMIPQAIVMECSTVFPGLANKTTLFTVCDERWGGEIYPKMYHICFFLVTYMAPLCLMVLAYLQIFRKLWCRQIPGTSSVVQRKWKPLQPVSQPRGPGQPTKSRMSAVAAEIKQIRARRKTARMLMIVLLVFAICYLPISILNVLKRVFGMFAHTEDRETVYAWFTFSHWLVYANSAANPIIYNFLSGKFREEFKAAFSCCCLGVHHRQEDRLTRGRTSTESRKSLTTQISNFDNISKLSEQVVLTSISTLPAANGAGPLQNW
Procedure: Orexin 2 Receptor Radioligand Binding Assay:
Cell membranes were prepared from the human Ox2 receptor expressing CHO cell line. The harvested cell pellets were homogenized in ice-cold buffer (15 mM TrisHCl (pH 7.4), 2 mM MgCl2, 0.3 mM EDTA, 1 mM EGTA, Sigma FAST™ protease inhibitor cocktail) and centrifuged at 45,000 rpm for 30 min at 4° C. After discarding the supernatants the pellets were re-suspended in the before mentioned buffer followed by homogenization and another centrifugation. Obtained pellets were re-suspended in ice cold buffer containing 75 mM TrisHCl (pH 7.5), 12.5 mM MgCl2, 0.3 mM EDTA, 1 mM EGTA, 250 mM sucrose and a Sigma FAST TM protease inhibitor cocktail. After protein quantification with the Pierce Protein Assay Kit, using BSA as standard, the membrane homogenates were aliquoted and frozen down at […] until further use.
(§4) Expression levels of the Ox2 receptor (Bmax) were determined by saturation binding and the Kd of the radioligand [^3H]EMPA was determined by association and dissociation kinetics. Data were elaborated with Graph Pad Prism using radioligand binding analysis. Steady state binding was reached after 60 min of incubation at room temperature. […]

human OX1 receptor [2] = biological target: T3, human OX1 receptor (Homo sapiens, UniProt O43613); assay: Orexin 1 receptor radioligand binding assay ([3H]-SB674042 competition); conditions: CHO membranes, 1 nM [3H]-SB674042, 90 min room temperature; read-out: hOX1 pKi (converted)
T3 construct: expressed in transfected cells; host or cells: CHO cells
T3 sequence (O43613 1-425): T1 sequence (O43613 1-425)
Procedure: Orexin 1 Receptor Radioligand Binding Assay:
Cell membranes were prepared from the human OX1 receptor expressing CHO cell line. The harvested cell pellets were homogenized in ice-cold buffer (15 mM TrisHCl (pH 7.5), 2 mM MgCl2, 0.3 mM EDTA, 1 mM EGTA, Sigma protease inhibitor cocktail) and centrifuged at 41,000 g for 20 min at 4° C. After discarding the supernatants the pellets were re-suspended in the before mentioned buffer followed by homogenization and another centrifugation. Obtained pellets were re-suspended in ice cold buffer containing 75 mM TrisHCl (pH 7.5), 12.5 mM MgCl2, 0.3 mM EDTA, 1 mM EGTA, 250 mM sucrose and a protease inhibitor cocktail (Sigma). After protein quantification with the Pierce Protein Assay Kit, using BSA as standard, the membrane homogenates were aliquoted and frozen down at […] until further use.
as §4, with “Ox1” for “Ox2”, “[^3H]SB674042” for “[^3H]EMPA”, “90” for “60”

human OX1 receptor [3] = biological target: T3, human OX1 receptor; assay: Ox1 antagonist FLIPR assay (calcium, orexin A at EC75); type: cell-based; conditions: CHO cells expressing human OX1; at least four replicates; read-out: hOX1 pIC50 (converted)
From the text: (§5) Antagonism against orexin receptors has been measured for each example compound using at least one of the following procedures. Antagonism is reported as a pIC50, where pIC50=−log10(IC50) and where IC50 is the concentration of example compound needed to inhibit 50% of the agonist response. These values may fluctuate depending on the daily cellular assay performance. Fluctuations of this kind are known to those skilled in the art. All reported values are the result of at least four replicate experiments. Ox2 values are only reported from dose response curves for which the top concentration is at least 10 μM.
(§6) Ox1 and Ox2 Antagonist FLIPR Assay: […]
(§7) The next day media is removed and replaced with 30 μL/well of cell loading buffer (a vial of Calcium 5 is solubilized in 20 mL of assay buffer) and the cells incubated for 1 hr at 37° C. The serially diluted test compounds (10 μL/well) are added to the cell plate by the FLIPR Tetra and the addition is monitored for 5 min by the instrument. […] Finally 10 μL of orexin Ain assay buffer+0.1% (w/v) bovine serum albumin is dispensed by the FLIPR Tetra at an EC75 concentration determined for each receptor on the day of the assay. Fluorescence is measured at excitation and emission wavelengths of 485 nm and 525 nm, respectively and data analyzed using Graph Pad Prism for the EC75 value of orexin A and Aplus to determine a pIC50 value for each test compound. […]

human Orexin 2 receptor = biological target: T4, human Orexin 2 receptor (Homo sapiens, UniProt O43614); assay: Kinetics of competitive binding (Motulsky and Mahan analysis), Orexin 2 receptor; conditions: mean of 3 studies (n=3); for Ki: 1 nM [3H] EMPA, read-out: pKi (M&M) (converted)
T4 construct: expressed in transfected cells
T4 sequence (O43614 1-444): T2 sequence (O43614 1-444)
Procedure: as §1, §2, §3
The results for the Orexin-2 Receptor studies are the mean of the results from 3 studies (n=3) for both Example compounds.

human OX2 receptor [4] = biological target: T2, human OX2 receptor; assay: Ox2 antagonist FLIPR assay (calcium, orexin A at EC75); type: cell-based; conditions: CHO cells expressing human OX2; top concentration at least 10 μM; at least four replicates; read-out: hOX2 pIC50 (converted)
From the text: as §5, §6, §7

orexin-1 (OX1) = biological target: T5, orexin-1 (OX1) (Homo sapiens, UniProt O43613); conditions: affinity of OxA relative to OxB at OX1; literature reference (2); cited from earlier work
T5 sequence (O43613 1-425): T1 sequence (O43613 1-425)

[5] = further test results (Example 1 n = 3, Example 2 n = 1)
[6] = mean of all results (Example 1 n = 5, Example 2 n = 3)
[7] = mean of initial results (n = 2)

Compound	dissociation half-life (human Orexin 1 receptor; [5])	koff (human Orexin 1 receptor; [5])	kon (human Orexin 1 receptor; [5])	tR (human Orexin 1 receptor; [5])	Ki (human Orexin 1 receptor; [5])	dissociation half-life (human Orexin 1 receptor; [6])	koff (human Orexin 1 receptor; [6])	kon (human Orexin 1 receptor; [6])	tR (human Orexin 1 receptor; [6])	Ki (human Orexin 1 receptor; [6])	dissociation half-life (human Orexin 1 receptor; [7])	koff (human Orexin 1 receptor; [7])	kon (human Orexin 1 receptor; [7])	tR (human Orexin 1 receptor; [7])	Ki (human Orexin 1 receptor; [7])	Ki (human OX2 receptor [1])	Ki (human OX1 receptor [2])	IC50 (human OX1 receptor [3])	Ki (human Orexin 2 receptor)	dissociation half-life (human Orexin 2 receptor)	also measured
Cc1ccc(-n2nccn2)c(C(=O)N(C)[C@@H](C)CNc2cnc(C(F)(F)F)cn2)n1 [Example 1, N,6-dimethyl-3-(2H-1,2,3-triazol-2-yl)-N-[(2S)-1-{[5-(trifluoromethyl)pyrazin-2-yl]amino}propan-2-yl]pyridine-2-carboxamide]	1.73 h	0.000117 s⁻¹	146000 M⁻¹ s⁻¹	150 min	0.794 nM	2.83 h	8.33e-05 s⁻¹	140000 M⁻¹ s⁻¹	245 min	0.501 nM	4.13 h	5e-05 s⁻¹	130000 M⁻¹ s⁻¹	357 min	0.316 nM	251 nM	1 nM	0.794 nM	316 nM	4.1 min	koff (human Orexin 2 receptor): 0.00352 s⁻¹; kon (human Orexin 2 receptor): 10800 M⁻¹ s⁻¹; tR (human Orexin 2 receptor): 5.9 min; IC50 (human OX2 receptor [4]): 1000 nM
Cc1ccc(-n2nccn2)c(C(=O)N(C)[C@@H](C)CNc2ncc(C(F)(F)F)cn2)n1 [Example 2, N,6-dimethyl-3-(2H-1,2,3-triazol-2-yl)-N-[(2S)-1-{[5-(trifluoromethyl)pyrimidin-2-yl]amino}propan-2-yl]pyridine-2-carboxamide]	1 h	0.000183 s⁻¹	78000 M⁻¹ s⁻¹	87 min	2.51 nM	1.08 h	0.000183 s⁻¹	76200 M⁻¹ s⁻¹	93 min	2.51 nM	1.12 h	0.000167 s⁻¹	75300 M⁻¹ s⁻¹	96 min	2.51 nM	794 nM	1.58 nM	1.26 nM	1580 nM	4.3 min	koff (human Orexin 2 receptor): 0.00298 s⁻¹; kon (human Orexin 2 receptor): 1830 M⁻¹ s⁻¹; tR (human Orexin 2 receptor): 6.2 min; IC50 (human OX2 receptor [4]): 2000 nM
OxA: neuropeptide Orexin-A, a 33 amino acid polypeptide, agonist on OX1 and OX2 receptors (QPLPDCCRQKTCSCRLYELLHGAGNHAAGILTL; not fully specified (residue 1, C-terminus, bridges); cysteine pairing not given here; UniProt O43612 34-66, looked up)	–	–	–	–	–	–	–	–	–	–	–	–	–	–	–	–	–	–	–	–	higher affinity than OxB (orexin-1 (OX1)): > 10 fold
